How the values were obtained:
[1] = tested on: MOG-EAE in C57BL/6 mice (chronic progressive model of MS); experiment: A(1-7) treatment in the chronic progressive MOG-EAE model of MS; assay type: in vivo; details: for disease course (clinical scores): vs control non-treated immunized mice, up to 50 days post immunization
[2] = tested on: PLP-EAE in SJL/J mice (relapsing-remitting model of MS); experiment: A(1-7) treatment in the relapsing-remitting PLP-EAE model of MS; assay type: in vivo; details: FIG. 1C
Excerpt: Multiple Sclerosis (MS) is a chronic autoimmune and neurodegenerative disease of the central nervous system (CNS) that is characterized by focal infiltration of leukocytes, including myelin-specific T cells, into the CNS, resulting destruction of myelin, demyelination, oxidative stress, axonal loss and ultimately, clinical symptoms and neurological disability. Experimental autoimmune encephalomyelitis (EAE) is a well-established animal model of MS that mimics many of the features of MS. We evaluated the ability of angiotensin peptide A(1-7) to modulate EAE disease course. For this study we used two common EAE models to study the efficacy of A(1-7), one that replicates the chronic progressive form of MS and the other that follows a relapsing-remitting course of the disease. Mice were immunized with peptides corresponding to major immunodominant regions of two myelin proteins: myelin oligodendrocyte protein 35-55 (MOG-EAE) immunization in C57BL6 mice to induce a chronic progressive disease, or proteolipid protein 139-151 (PLP-EAE) immunization in SJL/J mice induced a relapsing-remitting disease.
Female SJL/J mice, 10-weeks-old, were immunized subcutaneously in 4 sites on their flank (approximately 50 μl each) with 120 μg PLP-139-151 peptide emulsified in 200 μl CFA at baseline. Mice were anesthetized (as described for MOG-EAE) for the immunizations. SJL/J mice are highly susceptible to EAE induction by this method and require only one immunization to achieve disease in 90-100% of mice.
PLP-EAE is a relapsing form of disease in which the first acute attack of neurological symptoms occurs at approximately 10-13 days after immunization, peaks between day 15 and 18, is followed by a period of recovery, or remission for about 10 days. 25-40 days after immunization ˜75% of mice develop a second wave of paralysis (relapse). Relapses are often less severe and of shorter duration than the first attack. PLP-EAE mimics the relapsing-remitting form of MS. […]

[3] = tested on: Normal human progenitor cells (neurosphere cultures); experiment: A(1-7) treatment in in vitro neurosphere cultures; assay type: cell-based
Procedure: Normal human progenitor cells were purchased from Clonetics (San Diego, Calif.) and cultured in Neural Progenitor Cell Maintenance Medium (NPMM) [Neural Progenitor Basal Medium containing human recombinant fibroblast growth factor-beta, human recombinant epidermal growth factor, neural survival factors, gentamycin and amphotericin B)]. The cells were thawed, diluted into NPMM and cultured for 24 hours in a 75 cm^2 flask. Until studies to assess differentiation, the cells were cultured in dedifferentiated spheroids.
In order to assess the differentiation of neuronal cells, the cells were seeded upon wells coated with 0.05% polyethyleneimine (PEI) substrate in borate buffer solution. The wells of a 96 well plate were coated with 0.05 ml of this solution overnight at room temperature. After the incubation, the substrate was removed by aspiration, rinsed with sterile water and allowed to dry before seeding of cells. Four days after plating, the number of cells undergoing differentiation, as assessed by neurite outgrowth) was counted

[4] = treatment started 10 days after immunization, vs control non-treated immunized mice

With “Asp-Arg-Val-Tyr-Ile-His-Pro (DRVYIHP) [A(1-7), angiotensin peptide A(1-7)]” the “disease progression and severity” value ([1]; 1 mg/kg/day continuous delivery (Alzet pump) vs control, started day 11, FIG. 3) was “highly effective at inhibiting disease progression and maintaining reduced severity of the disease”, the restoration from disability ([1]; 2 mg/kg/day continuous delivery vs control saline treated mice, FIG. 3 and FIG. 4A) was “promotes restoration from disability” and the clinical disease score ([1]; all doses, twice daily injection, vs control saline treated mice, started day 11, FIG. 2) was “improved clinical disease score”. The “disease course (clinical scores)” value ([1]; once daily sc 0.5 mg/kg A(1-7) from day 10, FIG. 1A) was “less severe disease course”, the “clinical disease score, dose comparison” value ([1]; twice daily injection, total of 1.2 or 4 mg/kg/day vs 0.5 mg/kg/day, started day 11, FIG. 2) was “more effective in reducing clinical disease score than 0.5 mg/kg/day” and the “disease course (clinical scores)” value ([1]; twice daily sc 0.5 mg/kg A(1-7) from day 10, FIG. 1B) was “less severe disease course”. The “disease course (disability) with duration of treatment” value ([2]; PLP-EAE SJL mice, increasing duration of treatment) was “improves disease course (less disability) with increasing duration of treatment”, the disease severity [2, 4] was “the disease was less severe” and the onset of disease [2, 4] was “delayed onset of disease”. The “neurite outgrowth and proliferation” value ([3]; PEI-coated wells, counted four days after plating, increasing doses of A(1-7), FIG. 4) was “promotes neurite outgrowth and proliferation with increasing doses of A(1-7)” and the “number of cells able to undergo differentiation (proliferation)” value ([3]; suspension culture in the presence of A(1-7) for 4-7 days prior to placement on an adherent substrate) was “an increase in the number of cells able to undergo differentiation (proliferation)”.

Source: patent US9623084B2, “Methods for treating multiple sclerosis” (UNIVERSITY OF SOUTHERN CALIFORNIA, priority 2013, dated 2017)
